According to US20230151046A1, “5-POSITION MODIFIED PYRIMIDINES” (Nuclera Nucleics Ltd., priority 2020, published 2023):

What was measured:
[1] = Stability of 5-position modified 2′-deoxycytidine nucleosides to nitrite solution (nitrite-mediated deamination), LC-MS time course; format: physicochemical
Description: A series of 5-position modified nucleosides were tested. Each was incubated at room temperature in 700 mM NaNO2, 1 M acetate buffer pH 5.5 and the stability assayed by LC-MS over a time course. […] Electron withdrawing substituents such as the fluoro or alkynyl substituents increase stability. Electron donating substituents such as methyl and hydroxymethyl decrease stability.
LC-MS was used to monitor nucleosides throughout a time course of incubation in 700 mM sodium nitrite at pH 5.5. Integration of UV chromatograms was performed, and the percentage of starting nucleoside plotted.
In addition to monitoring the persistence of the starting material UV peak, the deamination products can be monitored. Deamination products were identified by their mass signals and appearance under nitrite incubation (FIG. 5).

[2] = Stability test of 2′-deoxycytidine and 2′-deoxy-5-fluorocytidine to methoxylamine (1× ORS), LC/MS; format: physicochemical; settings: 1× ORS (methoxylamine, pH 5.5 acetate), room temperature (FIG. 9)
Description: Stability Test of 2′-Deoxycytidine and 2′-Deoxy-5-Fluorocytidine to methoxylamine Oxime removal solution buffer (2× ORS) was prepared from methyoxylamine hydrochloride (60 mg, 0.71 mmol), water (200 μL), pH 5.5 sodium acetate (200 μL) and 10 M sodium hydroxide (53.4 μL) and additional water (1.4 mL). A previously frozen sample of this buffer was further diluted with water by a factor of two to yield 1× ORS. Samples of 2′-deoxycytidine (˜0.5 mg) and 2′-deoxy-5-fluorocytidine (˜0.5 mg) were dissolved in 1 mL aliquots of the buffer. The samples were analysed by LC/MS immediately after making up the samples and at intervals while stored together at room temperature. Appearance of the reaction products 2′-deoxy-4(N)-methoxy cytidine (1) and 2′-deoxy-4(N)-methoxy-5-fluorocytidine (2) and a corresponding loss of starting material was observed. The corresponding loss of starting material relative to the reaction products is plotted on the graph below.
HPLC Method for LC/MS Analysis

For `Nc1nc(=O)n([C@H]2C[C@H](O)[C@@H](CO)O2)cc1F` [5-fluoro-2′-deoxycytidine], the “rate of nitrite-mediated deamination, fold lower than the canonical deoxycytidine analogue” value ([1]; 700 mM pH 5.5 nitrite, room temperature (FIG. 1)) was 4 fold and the “stability to methoxylamine treatment relative to canonical dC” value [2] was about 10 ×.
For `Cc1cn([C@H]2C[C@H](O)[C@@H](CO)O2)c(=O)nc1N` [5-methyl-2′deoxycytidine, reference compound], the “rate of nitrite-mediated deamination, fold greater than the canonical deoxycytidine analogue” value ([1]; 700 mM pH 5.5 nitrite, room temperature (FIG. 2)) was 2 fold.
For `CC#Cc1cn([C@H]2C[C@H](O)[C@@H](CO)O2)c(=O)nc1N` [5-propynyl, 5-propynyl-2′-deoxycytidine], the “stability to nitrite solution (in words)” value ([1]; 700 mM NaNO2, 1 M acetate buffer pH 5.5, room temperature, relative to parent deoxycytidine) was “increased stability”.
